Data from US20230292750A1, “INSECT REPELLENT PATCHES AND TUBULAR ARTICLES” (ACHIEVE EQUINE LLC, priority 2020, published 2023).

Assays:
[1] = Adhesion Test (reservoir layer to support film); type: physicochemical; parameters: key: A positive (+) result for adhesion indicates the carrier cohesively failed with transfer of polymer carrier material of the reservoir layer to the support film; conditions: Camie SBR carrier (CAMIE 390B); repellent 2% in dry carrier, coated on PET tape
Experimental: Samples of 0.75 inch (19 mm) diameter were coated in circular molds onto the PET tape to a dry thickness of approximately 0.020 inch (0.51 mm). The insect repellent was formulated at 2% within the dry carrier. Subsequent to coating, the samples were first allowed to air dry at room temperature for approximately 1 hour, then placed in a heated air convection oven at approximately […] for several hours. Upon removal, samples sat overnight before evaluation. A sharpened to a point like a flat wooden dowel (approximately 3 mm diameter) was used to separate the reservoir layer/support film coating interface. The sharpened end of the wooden dowel was applied under hand pressure at the interface in an attempt to separate the reservoir layer from the support film. A positive (+) result for adhesion indicates the carrier cohesively failed with transfer of polymer carrier material of the reservoir layer to the support film.

[2] = Tack Test (wooden dowel probe on reservoir layer); type: physicochemical; parameters: key: A positive (+) result for tack indicates there was no transfer of the carrier polymer of the reservoir layer to the probe (adhesive failure); conditions: repellent 2% in dry carrier, coated on PET tape
Experimental: Samples of 0.75 inch (19 mm) diameter were coated in circular molds onto the PET tape to a dry thickness of approximately 0.020 inch (0.51 mm). The insect repellent was formulated at 2% within the dry carrier. Subsequent to coating, the samples were first allowed to air dry at room temperature for approximately 1 hour, then placed in a heated air convection oven at approximately […] for several hours. Upon removal, samples sat overnight before evaluation. As a measure of tack, the surface of the coated formulation was probed with the flat end of a wooden dowel The wooden dowel was applied under hand pressure to the surface of the reservoir layer for 1 second long in contact. A positive (+) result for tack indicates there was no transfer of the carrier polymer of the reservoir layer to the probe (adhesive failure).

[3] = Bostik EVA carrier (comparative)

Structure (SMILES)	adhesion [1]	tack [2, 3]	tack ([2]; Camie SBR carrier (CAMIE 390B))
CCN(CC)C(=O)c1cccc(C)c1 [Deet, N,N-diethyl-meta-toluamide]	+ +	+	+ +
CC(C)=CCC/C(C)=C/CO [Geraniol]	+ +	+	+ +
